The supplement of paper PMC10627819

Columns and labels:
B. subtilis 168 [1] = assay: Bliss interaction score (quartile over a dose matrix) (fitness difference); higher = more antagonism (negative = synergy)
Method in brief: (§1)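 Fitness was derived from optical density at entry into stationary phase, divided by the robust mean of the no-drug wells on the same plate. That reading was taken as OD595, and the ratio was capped at 1. Single-drug fitness was inferred from the combination data. The Bliss score, observed fitness minus the expected product of single-drug fitness, was summarised as quartiles over technical, biological and donor/recipient replicates.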

S. aureus DSM 20231 [2] = assay: as above
Method in brief: as §1

S. pneumoniae D39V [3] = assay: as above
Method in brief: as §1

S. aureus Newman [4] = assay: as above
Method in brief: as §1

B. subtilis 168 [5] = assay: fitness (endpoint OD595 vs no drug) (fraction); higher = more growth
Method in brief: (§2)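 Growth medium was TSB, LB Lennox or CY, and plates were kept at 37 °C. Inoculation was at OD595 0.01 in 384-well plates, at 30 µl per well or 55 µl for S. pneumoniae. OD595 was monitored every 30 min for 14 h and background-subtracted using the first reading. Fitness is the optical density on entering stationary phase divided by the robust mean of no-drug controls, with values capped at 1.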

S. aureus DSM 20231 [6] = assay: as above
Method in brief: as §2

S. pneumoniae D39V [7] = assay: as above
Method in brief: as §2

S. aureus Newman [8] = assay: as above; conditions: first compound 0.0312 µg/mL; partner 85.5 µg/mL
Method in brief: as §2
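For Bliss interaction score (quartile over a dose matrix) in this document: first quartile when negative (synergy) and third quartile when positive (antagonism).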

CCC[C@@H]1C[C@@H](C(=O)N[C@@H]([C@H]2O[C@H](SC)[C@H](O)[C@@H](O)[C@H]2O)[C@H](C)Cl)N(C)C1 [Clindamycin] + CCN(CC)CCOC(=O)c1ccc(N)cc1 [Procaine]
Conditions | Bliss interaction score | fitness
B. subtilis 168 [1] | -0.067 | –
S. aureus DSM 20231 [2] | -0.0363 | –
S. aureus Newman [4] | 0.0552 | –
S. aureus Newman [8] | – | 0.706
S. pneumoniae D39V [3] | -0.11 | –

fitness, one replicate
Conditions | first compound 0.0039 µg/mL | first compound 0.0078 µg/mL | first compound 0.015 µg/mL | first compound 0.0156 µg/mL | first compound 0.03 µg/mL | first compound 0.06 µg/mL
B. subtilis 168 [5], partner 85.5 µg/mL | 0.941 | 0.866 | – | 0.798 | – | –
B. subtilis 168 [5], partner 171 µg/mL | 0.931 | 0.838 | – | 0.814 | – | –
B. subtilis 168 [5], partner 342 µg/mL | 0.931 | 0.788 | – | 0.856 | – | –
S. pneumoniae D39V [7], partner 85.5 µg/mL | – | – | 0.916 | – | 0.713 | 0.349
S. pneumoniae D39V [7], partner 171 µg/mL | – | – | 0.956 | – | 0.766 | 0.513
S. pneumoniae D39V [7], partner 342 µg/mL | – | – | 0.806 | – | 0.716 | 0.373

fitness
Conditions | partner 85.5 µg/mL | partner 171 µg/mL | partner 342 µg/mL
B. subtilis 168 [5], first compound 0.0625 µg/mL | 0.504 | 0.483 | 0.506
B. subtilis 168 [5], first compound 0.125 µg/mL | 0.363 | 0.362 | 0.367
B. subtilis 168 [5], first compound 0.25 µg/mL | 0.344 | 0.335 | 0.339
S. aureus DSM 20231 [6], first compound 0.0625 µg/mL | 0.196 | – | –
S. aureus DSM 20231 [6], first compound 0.125 µg/mL | 0.0583 | 0.0591 | 0.0589
S. pneumoniae D39V [7], first compound 0.0125 µg/mL | 0.772 | 0.723 | 0.746
S. pneumoniae D39V [7], first compound 0.025 µg/mL | 0.517 | 0.472 | 0.466
S. pneumoniae D39V [7], first compound 0.05 µg/mL | 0.205 | 0.186 | 0.19
